Laboratory results from US7790188B2, “Antifungal protein and usage thereof” (Food Industry Research and Development Institute, priority 2006, dated 2010).

Columns and labels:
H. panici BCRC 35004 = assay: Antifungal activity assay (pathogen antagonistic dosage assay, paper discs on PDA plate); assay type: cell-based, Helminthosporium panici; conditions: 28° C.
Description: (§1) The fungal strains for testing the antifungal activities of Monascus strains or isolated and purified antifungal protein, MAFP1, are selected from Helminthosporium panici BCRC 35004 and Paecilomyces variotii BCRC 33174. The fungal strains were inoculated on PDA (Potato Dextrose Agar, Difico Co.) culture plate and cultured at 25° C. for 7 to 14 days. Pathogen antagonistic dosage assays were conducted to confirm the antifungal activity of the purified MAFP1 protein. Fungal blocks of pathogenic fungi (P. variotii BCRC 33174 and H. panici BCRC 35004) were place in the center of PDA plates. 6 mm paper discs with different concentrations of MAFP1 solutions (containing 0 to 0.8 μg of purified MAFP1 protein) were placed surround the fungal block of pathogenic fungus. The plates were cultured at 28° C. and the growth inhibitions of the pathogenic fungi were observed.

P. variotii BCRC 33174 = assay: as above; assay type: cell-based, Paecilomyces variotii; conditions: 28° C.
Description: as §1

[1] = discs with 0 to 0.8 μg MAFP1, PDA plate

MAFP1: Antifungal protein of about 7 kDa purified from M. pilosus BCRC 38093 culture broth; mature form, SEQ ID NO: 3 (LSKYGGECSLQHNTCTYLKGGKNQVVHCGSAANQKCKSDRHHCEYDEHHKTVNCQTPV; listed as Monascus pilosus)
growth inhibition of H. panici (H. panici BCRC 35004; 0.4 μg of purified MAFP1 protein on 6 mm paper disc, PDA plate): can significantly inhibit the growth
dependence of growth inhibition of pathogenic fungus on MAFP1 concentration (H. panici BCRC 35004; [1]): the higher the MAFP1 concentration, the stronger the inhibitory activity
growth inhibition of P. variotii (P. variotii BCRC 33174; 0.2 μg of purified MAFP1 protein on 6 mm paper disc, PDA plate): can significantly inhibit the growth
dependence of growth inhibition of pathogenic fungus on MAFP1 concentration (P. variotii BCRC 33174; [1]): the higher the MAFP1 concentration, the stronger the inhibitory activity
